Drawing on ChEMBL document CHEMBL2203135, “Novel progesterone receptor modulators: 4-aryl-phenylsulfonamides” (Bioorg Med Chem Lett, 2012), this text covers Activity and IC50 for 2 compounds.

Structures are written as SMILES. Active and inactive are the calls of the source. The calls are words filed in the database; no cut-off is given here.

The target in data set [1] is T1, Estrogen receptor (Homo sapiens) (UniProt P03372).
T1 sequence (whole entry): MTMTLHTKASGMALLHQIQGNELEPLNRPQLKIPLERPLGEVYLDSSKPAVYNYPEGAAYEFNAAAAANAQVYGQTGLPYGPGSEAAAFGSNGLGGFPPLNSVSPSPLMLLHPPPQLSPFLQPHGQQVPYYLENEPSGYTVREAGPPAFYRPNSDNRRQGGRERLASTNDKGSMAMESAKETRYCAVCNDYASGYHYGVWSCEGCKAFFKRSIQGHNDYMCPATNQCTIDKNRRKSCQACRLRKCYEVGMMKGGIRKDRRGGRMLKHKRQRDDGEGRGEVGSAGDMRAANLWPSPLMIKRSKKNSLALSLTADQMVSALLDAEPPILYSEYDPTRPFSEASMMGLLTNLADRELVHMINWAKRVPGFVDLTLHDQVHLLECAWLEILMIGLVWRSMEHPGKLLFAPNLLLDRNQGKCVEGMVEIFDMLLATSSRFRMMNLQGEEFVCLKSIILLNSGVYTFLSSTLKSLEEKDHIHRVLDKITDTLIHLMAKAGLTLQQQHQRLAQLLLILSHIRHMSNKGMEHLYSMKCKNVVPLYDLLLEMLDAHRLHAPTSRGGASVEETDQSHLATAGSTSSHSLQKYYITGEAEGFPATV
In words: (§1) Antagonist activity at estrogen receptor by cellular reporter gene assay. Type of data set: functional. For orientation: In a reporter assay the amount or activity of a reporter protein is the signal.

Another data set has as its system Salmonella typhimurium. Nature of the data set: Mutagenicity in Salmonella typhimurium in absence of liver S9 fraction by non-GLP Ames test. Particulars: salmonella enterica subsp. enterica serovar typhimurium. Type of data set: toxicity, organism-based. In general terms: The Ames test detects mutagens through reverse mutation in bacteria.
The target of a further data set is T2, Estrogen receptor (Homo sapiens, UniProt P03372).
T2 sequence (P03372 whole entry): T1 sequence (whole entry)
The data set is described as §1. Type of data set: functional.

Regarding `CCS(=O)(=O)Nc1cc(F)c(-c2ccc(C#N)n2C)c(F)c1`, in data set [1], the result was inactive. Besides, in the data set with Salmonella typhimurium, the Activity entry was “Non-toxic”.
The IC50 is the concentration needed to halve the response being measured. `COC[C@]1(OC)CC[C@H]2[C@@H]3CCC4=CC(=O)CCC4=C3[C@@H](c3ccc(/C=N/O)cc3)C[C@@]21C` [ASOPRISNIL] gave an IC50 against Estrogen receptor of 2000 nM.
